Results on 18 substances are retold here after the OligoGym collection.

HELM strings list units from the 5' end as sugar, base in round brackets, then linkage (d deoxyribose, r ribose, m 2'-O-methyl, p phosphodiester). Strings are as the collection lists them; they lack the last nucleoside at the 3' end of the tested compound. [moe] = 2'-O-(2-methoxyethyl) (MOE); [sp] = phosphorothioate linkage; [m5C] = 5-methylcytosine

The data set concerns the target SCN2A. Kind of data set: mouse, dose not given. Particulars: ASO.
Regarding “RNA1{[moe](T)[sp].[moe]([m5C])p.[moe](T)p.[moe](A)p.[moe](T)p.[moe](T)[sp].d(T)[sp].d(T)[sp].d(A)[sp].d(T)[sp].d(A)[sp].d(A)[sp].d(A)[sp].d(T)[sp].[moe](G)p.[moe]([m5C])[sp].[moe]([m5C])}$$$$ (last 3' nucleoside missing)”, the 3 h FOB score is 1 score 0-7. In turn, “RNA1{[moe](T)[sp].[moe](G)p.[moe]([m5C])p.[moe](A)p.d(T)[sp].d(G)[sp].d(T)[sp].d(A)[sp].d(A)[sp].d([m5C])[sp].d([m5C])[sp].d(T)[sp].d(T)[sp].d(T)[sp].[moe](A)p.[moe](T)p.[moe](A)p.[moe]([m5C])[sp].[moe](A)}$$$$ (last 3' nucleoside missing)” displayed a 3 h FOB score of 0 score 0-7.

Substance “RNA1{[moe](T)[sp].[moe](T)p.[moe]([m5C])p.[moe](T)p.d(A)[sp].d(T)[sp].d(T)[sp].d(T)[sp].d(T)[sp].d(A)[sp].d(T)[sp].d(A)[sp].d(A)[sp].d(A)[sp].[moe](T)p.[moe](G)p.[moe]([m5C])p.[moe]([m5C])[sp].[moe](G)}$$$$ (last 3' nucleoside missing)” yielded a 3 h FOB score of 1 score 0-7. “RNA1{[moe](T)[sp].[moe](G)p.[moe](G)p.[moe](A)p.[moe]([m5C])p.d([m5C])[sp].d(G)[sp].d(T)[sp].d([m5C])[sp].d(T)[sp].d([m5C])[sp].d(T)[sp].d(T)[sp].d(T)[sp].d([m5C])[sp].[moe](T)p.[moe](T)p.[moe](A)[sp].[moe](T)}$$$$ (last 3' nucleoside missing)” had a 3 h FOB score of 1 score 0-7. As for “RNA1{[moe](A)[sp].[moe]([m5C])p.[moe]([m5C])p.[moe](A)p.[moe]([m5C])p.[moe](G)p.d([m5C])[sp].d(T)[sp].d(T)[sp].d(A)[sp].d([m5C])[sp].d(A)[sp].d(T)[sp].d([m5C])[sp].d(A)[sp].d(A)[sp].[moe](A)p.[moe]([m5C])[sp].[moe](A)}$$$$ (last 3' nucleoside missing)”, the figure is 0 score 0-7; as for “RNA1{[moe]([m5C])[sp].[moe](T)p.[moe](G)p.[moe](G)p.d(A)[sp].d([m5C])[sp].d([m5C])[sp].d(G)[sp].d(T)[sp].d([m5C])[sp].d(T)[sp].d([m5C])[sp].d(T)[sp].d(T)[sp].[moe](T)p.[moe]([m5C])p.[moe](T)p.[moe](T)[sp].[moe](A)}$$$$ (last 3' nucleoside missing)”, 1 score 0-7; as for “RNA1{[moe](T)[sp].[moe](T)p.[moe]([m5C])p.[moe](T)p.[moe](A)p.d(T)[sp].d(T)[sp].d(T)[sp].d(T)[sp].d(A)[sp].d(T)[sp].d(A)[sp].d(A)[sp].d(A)[sp].d(T)[sp].[moe](G)p.[moe]([m5C])p.[moe]([m5C])[sp].[moe](G)}$$$$ (last 3' nucleoside missing)”, 0 score 0-7. For the substance “RNA1{[moe](G)[sp].[moe](G)p.[moe](T)p.[moe]([m5C])p.[moe](T)p.d([m5C])[sp].d(T)[sp].d(T)[sp].d(A)[sp].d(G)[sp].d([m5C])[sp].d(T)[sp].d(T)[sp].d(T)[sp].d([m5C])[sp].[moe](T)p.[moe]([m5C])p.[moe](T)[sp].[moe](T)}$$$$ (last 3' nucleoside missing)”, the 3 h FOB score is 4 score 0-7. In the case of “RNA1{[moe](A)[sp].[moe](T)p.[moe]([m5C])p.[moe](G)p.[moe](A)p.d(T)[sp].d(T)[sp].d([m5C])[sp].d([m5C])[sp].d(T)[sp].d(T)[sp].d(T)[sp].d([m5C])[sp].d(T)[sp].d(G)[sp].[moe]([m5C])p.[moe](A)p.[moe](T)[sp].[moe]([m5C])}$$$$ (last 3' nucleoside missing)”, the 3 h FOB score came to 1 score 0-7. As to “RNA1{[moe]([m5C])[sp].[moe](T)p.[moe](A)p.[moe](T)p.[moe](T)[sp].d(T)[sp].d(T)[sp].d(A)[sp].d(T)[sp].d(A)[sp].d(A)[sp].d(A)[sp].d(T)[sp].[moe](G)p.[moe]([m5C])p.[moe]([m5C])[sp].[moe](G)}$$$$ (last 3' nucleoside missing)”, the 3 h FOB score is 0 score 0-7.

“RNA1{[moe](A)[sp].[moe](A)p.[moe](T)p.[moe]([m5C])p.d(A)[sp].d([m5C])[sp].d(T)[sp].d(T)[sp].d(T)[sp].d([m5C])[sp].d(A)[sp].d(T)[sp].d([m5C])[sp].d([m5C])[sp].[moe](A)p.[moe]([m5C])p.[moe](G)p.[moe](A)[sp].[moe]([m5C])}$$$$ (last 3' nucleoside missing)” came in with a 3 h FOB score of 0.33 score 0-7.

Substance “RNA1{[moe](T)[sp].[moe]([m5C])p.[moe]([m5C])p.[moe](A)p.[moe]([m5C])p.[moe](G)p.d(A)[sp].d([m5C])[sp].d(A)[sp].d(T)[sp].d(A)[sp].d(T)[sp].d(T)[sp].d(T)[sp].d(T)[sp].d(T)[sp].[moe]([m5C])p.[moe](T)[sp].[moe](A)}$$$$ (last 3' nucleoside missing)” registered a 3 h FOB score of 0 score 0-7.

Consider “RNA1{[moe](T)[sp].[moe]([m5C])p.[moe](T)p.[moe](A)[sp].d(T)[sp].d(T)[sp].d(T)[sp].d(T)[sp].d(A)[sp].d(T)[sp].d(A)[sp].d(A)[sp].[moe](A)p.[moe](T)p.[moe](G)p.[moe]([m5C])[sp].[moe]([m5C])}$$$$ (last 3' nucleoside missing)”, for which the 3 h FOB score is 1 score 0-7. For the substance “RNA1{[moe](T)[sp].[moe](G)p.[moe]([m5C])p.[moe]([m5C])p.[moe](A)p.[moe](T)p.d(T)[sp].d(T)[sp].d([m5C])[sp].d(T)[sp].d(A)[sp].d(T)[sp].d(A)[sp].d(A)[sp].d([m5C])[sp].d(T)[sp].[moe]([m5C])p.[moe](A)[sp].[moe](G)}$$$$ (last 3' nucleoside missing)”, the 3 h FOB score was 0 score 0-7. “RNA1{[moe](G)[sp].[moe]([m5C])p.[moe](A)p.[moe](T)p.[moe](A)p.d(A)[sp].d(T)[sp].d([m5C])[sp].d([m5C])[sp].d([m5C])[sp].d(A)[sp].d(T)[sp].d(T)[sp].d(A)[sp].d(T)[sp].[moe](A)p.[moe]([m5C])p.[moe](A)[sp].[moe](A)}$$$$ (last 3' nucleoside missing)”: the 3 h FOB score is 0.5 score 0-7. In the case of “RNA1{[moe](A)[sp].[moe](T)p.[moe](T)p.[moe](T)p.[moe]([m5C])p.[moe](T)p.d(A)[sp].d(T)[sp].d(A)[sp].d(A)[sp].d([m5C])[sp].d(T)[sp].d([m5C])[sp].d(A)[sp].d(G)[sp].d([m5C])[sp].[moe](A)p.[moe](A)[sp].[moe]([m5C])}$$$$ (last 3' nucleoside missing)”, the 3 h FOB score turned out to be 1 score 0-7. For “RNA1{[moe]([m5C])[sp].[moe](A)p.[moe](G)p.[moe](T)p.d(T)[sp].d(T)[sp].d(T)[sp].d(T)[sp].d(T)[sp].d([m5C])[sp].d(A)[sp].d(T)[sp].d(T)[sp].d(G)[sp].[moe]([m5C])p.[moe](A)p.[moe](T)p.[moe]([m5C])[sp].[moe]([m5C])}$$$$ (last 3' nucleoside missing)”, the 3 h FOB score came out at 2 score 0-7. “RNA1{[moe](A)[sp].[moe]([m5C])p.[moe](A)p.[moe](T)p.[moe](A)p.[moe](T)p.d(T)[sp].d(T)[sp].d(T)[sp].d(T)[sp].d([m5C])[sp].d(T)[sp].d(A)[sp].d([m5C])[sp].d(A)[sp].d([m5C])[sp].[moe](T)p.[moe](G)[sp].[moe]([m5C])}$$$$ (last 3' nucleoside missing)” displayed a 3 h FOB score of 0 score 0-7.
